Measurements from patent US9096602B2, “Substituted pyrrolo[2,3-B]pyrazines as ATR kinase inhibitors” (Vertex Pharmaceuticals Incorporated, priority 2011, dated 2015).
Read-outs that look alike come from different tables or passages of the source.

Target: T1, ATR kinase (full-length ATR) (Homo sapiens, UniProt Q13535)
T1 construct: Assays were carried out at 25° C. in the presence of 5 nM full-length ATR
Experiment: ATR Inhibition Assay (radioactive-phosphate incorporation)
Format: biochemical
Conditions: Ki(app), 5 nM full-length ATR, 10 μM ATP, 800 μM target peptide, 25° C., read-out: ATR Inhibition Ki
Summary of the method: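 Radiometric 33P filter assay with 5 nM full-length ATR in 50 mM Tris/HCl pH 7.5, 10 mM MgCl2, 1 mM DTT at 25 °C. Final 10 μM [γ-33P]ATP and 800 μM peptide; 10 min compound preincubation, ATP start, stopped at 24 h with phosphoric acid/ATP. Ki(app) from non-linear regression of background-corrected initial rates.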

[1] = given as numeric lower bound without unit

T1 sequence (Q13535 whole entry): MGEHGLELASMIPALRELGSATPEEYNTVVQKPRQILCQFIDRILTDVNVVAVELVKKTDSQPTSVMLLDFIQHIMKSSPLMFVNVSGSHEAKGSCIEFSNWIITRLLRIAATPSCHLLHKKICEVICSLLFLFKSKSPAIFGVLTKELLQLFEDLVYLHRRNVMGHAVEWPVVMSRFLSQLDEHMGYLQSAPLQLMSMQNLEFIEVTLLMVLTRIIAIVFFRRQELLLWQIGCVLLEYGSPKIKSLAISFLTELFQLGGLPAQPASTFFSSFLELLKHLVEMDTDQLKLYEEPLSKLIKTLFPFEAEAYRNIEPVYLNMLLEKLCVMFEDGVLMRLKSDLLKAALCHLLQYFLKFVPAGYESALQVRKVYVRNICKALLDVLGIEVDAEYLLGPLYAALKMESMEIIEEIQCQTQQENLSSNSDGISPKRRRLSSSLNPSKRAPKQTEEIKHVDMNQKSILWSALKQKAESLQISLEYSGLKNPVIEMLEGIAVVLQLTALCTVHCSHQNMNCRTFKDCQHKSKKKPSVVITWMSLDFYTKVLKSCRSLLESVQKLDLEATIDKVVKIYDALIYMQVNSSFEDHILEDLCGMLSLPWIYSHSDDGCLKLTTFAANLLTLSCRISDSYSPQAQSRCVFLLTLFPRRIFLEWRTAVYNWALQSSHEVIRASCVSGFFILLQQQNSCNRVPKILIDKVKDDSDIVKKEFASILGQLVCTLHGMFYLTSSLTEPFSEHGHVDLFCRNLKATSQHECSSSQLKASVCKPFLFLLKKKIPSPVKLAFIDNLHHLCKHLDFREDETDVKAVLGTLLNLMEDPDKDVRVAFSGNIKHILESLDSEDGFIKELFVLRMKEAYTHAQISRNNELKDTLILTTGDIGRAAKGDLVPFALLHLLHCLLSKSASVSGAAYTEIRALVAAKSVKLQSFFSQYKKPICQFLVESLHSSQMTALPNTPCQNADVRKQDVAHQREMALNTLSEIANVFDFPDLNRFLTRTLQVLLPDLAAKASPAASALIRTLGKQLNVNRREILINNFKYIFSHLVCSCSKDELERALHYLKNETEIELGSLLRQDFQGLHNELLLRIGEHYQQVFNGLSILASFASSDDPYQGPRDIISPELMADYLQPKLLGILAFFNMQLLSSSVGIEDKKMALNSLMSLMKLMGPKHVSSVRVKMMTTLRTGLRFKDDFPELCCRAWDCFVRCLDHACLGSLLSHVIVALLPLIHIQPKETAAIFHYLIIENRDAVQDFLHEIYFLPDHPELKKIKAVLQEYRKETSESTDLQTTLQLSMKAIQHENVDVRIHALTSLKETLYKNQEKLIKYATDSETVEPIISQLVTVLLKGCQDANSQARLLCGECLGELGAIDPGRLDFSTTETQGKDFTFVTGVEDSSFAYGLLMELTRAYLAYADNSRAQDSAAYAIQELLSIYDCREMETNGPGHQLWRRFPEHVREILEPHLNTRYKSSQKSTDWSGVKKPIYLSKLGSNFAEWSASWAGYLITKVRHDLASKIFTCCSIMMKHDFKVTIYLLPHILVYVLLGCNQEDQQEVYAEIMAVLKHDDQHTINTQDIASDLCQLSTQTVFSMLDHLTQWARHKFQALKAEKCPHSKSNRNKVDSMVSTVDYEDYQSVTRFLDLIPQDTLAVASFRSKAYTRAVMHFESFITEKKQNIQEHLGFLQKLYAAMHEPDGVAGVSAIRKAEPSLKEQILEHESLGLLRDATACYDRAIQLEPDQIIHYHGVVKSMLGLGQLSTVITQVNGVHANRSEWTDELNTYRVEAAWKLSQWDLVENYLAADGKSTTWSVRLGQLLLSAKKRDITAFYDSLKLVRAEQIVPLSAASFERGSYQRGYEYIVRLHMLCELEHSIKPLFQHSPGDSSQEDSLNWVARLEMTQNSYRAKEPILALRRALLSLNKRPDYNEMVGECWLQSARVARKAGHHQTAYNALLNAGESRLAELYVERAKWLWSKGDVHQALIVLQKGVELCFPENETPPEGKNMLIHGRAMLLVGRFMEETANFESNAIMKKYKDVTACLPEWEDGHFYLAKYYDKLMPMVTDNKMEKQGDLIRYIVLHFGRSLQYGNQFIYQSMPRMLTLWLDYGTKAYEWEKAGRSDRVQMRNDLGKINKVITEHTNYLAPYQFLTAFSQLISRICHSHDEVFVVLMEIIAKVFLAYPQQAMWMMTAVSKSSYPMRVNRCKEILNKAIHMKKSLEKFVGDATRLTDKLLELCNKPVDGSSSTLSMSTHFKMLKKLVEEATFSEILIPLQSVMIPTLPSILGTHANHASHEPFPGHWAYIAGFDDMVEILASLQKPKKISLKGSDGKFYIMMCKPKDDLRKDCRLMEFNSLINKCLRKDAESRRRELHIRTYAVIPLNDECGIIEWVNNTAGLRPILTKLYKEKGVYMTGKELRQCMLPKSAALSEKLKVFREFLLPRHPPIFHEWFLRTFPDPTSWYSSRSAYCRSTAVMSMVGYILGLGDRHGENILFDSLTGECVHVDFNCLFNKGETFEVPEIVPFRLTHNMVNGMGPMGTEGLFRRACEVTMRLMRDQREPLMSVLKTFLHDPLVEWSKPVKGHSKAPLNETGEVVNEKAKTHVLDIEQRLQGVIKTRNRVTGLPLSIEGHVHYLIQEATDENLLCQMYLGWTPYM

## CC(c1ccc(Cl)cc1)N(C)C(=O)c1c[nH]c2ncc(-c3ccc(S(=O)(=O)C(C)C)cc3)nc12 (stereo not drawn) [Compound I-135, N-[1-(4-chlorophenyl)ethyl]-2-(4-isopropylsulfonylphenyl)-N-methyl-5H-pyrrolo[2,3-b]pyrazine-7-carboxamide]
Class symbols
  Ki: < 100 nM

## CC(C)S(=O)(=O)c1ccc(-c2cnc3[nH]cc(C(=O)N4CCCNCC4)c3n2)cc1 [Compound I-136, 1,4-diazepan-1-yl-[2-(4-isopropylsulfonylphenyl)-5H-pyrrolo[2,3-b]pyrazin-7-yl]methanone]
[1]
  Ki: > 250 nM

## CC(C)S(=O)(=O)c1ccc(-c2cnc3[nH]cc(C(=O)N4CCNCC4)c3n2)cc1 [Compound I-137, [2-(4-isopropylsulfonylphenyl)-5H-pyrrolo[2,3-b]pyrazin-7-yl]-piperazin-1-yl-methanone]
[1]
  Ki: > 250 nM
